From patent US6794383B2, “Heart muscular cell apoptosis inhibitors and remedies/preventives for heart diseases” (Takeda Chemical Industries, Ltd., priority 2000, dated 2004)

Tested on: primary heart muscle cells derived from newborn rats
Test: Inhibitory activity on heart muscle cell apoptosis (serum-free culture, viable cell number by WST-8)
Type: cell-based, rat
Conditions: mean ± SD of three independent experiments; concentration required to increase the mean viable cell number by 30% vs absence of test compound; serum-free Medium 199, 4 days
Source text: Newborn rats (within 1 day after birth) were obtained from pregnant Wister rats purchased from Charles River, anesthetized under ether, and sterilized with 70% ethanol, and then their hearts were excised with tweezers. The excised hearts were washed with a phosphate-buffered physiological saline (T900; Takara) and cut into pieces with surgical scissors. These tissue pieces were washed 4 to 5 times with a phosphate-buffered physiological saline to remove a majority of blood-derived non-heart muscle cells. To the tissue pieces derived from 10 newborns, 5 ml of enzyme solution (1.25 mg trypsin (Difco) and 0.25 mg collagenase (Sigma) per ml of phosphate-buffered saline (PBS)) was added and the mixture was stirred with a stirrer at 37° C. for 15 mins. Another 2.5 ml enzyme solution was then added twice repeatedly at a 15-minutes interval. Then, Medium 199 (Gibco) containing 10% fetal calf serum (Biowiker) was added in a half volume of the enzyme solution to terminate the enzyme reaction. The cells were filtered through a Cell Strainer (Falcon) and then centrifuged at 400×g for 5 minutes, whereby the cells were collected.
The cells thus collected from 10 newborns were suspended in 50 ml Medium 199 containing 10% fetal calf serum, plated onto 100 mm Petri dishes (Iwaki) in a volume of 10 ml/dish and cultured for 1 hour in a CO2 incubator set at 5% CO2 and 37° C. The cells were then recovered, filtered through a Cell Strainer and centrifuged at 400×g for 5 minutes to collect the primary heart muscle cells derived from newborn rats.
Then, the heart muscle cells from 10 newborn rats were suspended in 2 ml low-isotonic solution (prepared by dissolving 8.29 g NH4Cl, 1.0 g KHCO3, 37 mg EDTA/2Na (ethylenediaminetetraacetic acid disodium)(Dojindo) in 1 L of water) and left for 3 minutes to disrupt erythrocytes. After 10 ml Medium 199 containing 10% fetal calf serum was added thereto, the primary heart muscle cells from newborn rats were collected by centrifugation at 400×g for 5 minutes. The cells were suspended in Medium 199 containing 10% fetal calf serum and then filtered through a cell strainer. After 0.3% trypan blue was added to, and mildly mixed with, an aliquot of the resulting cell suspension, the number of heart muscle cells was counted on an erythrocyte counting plate.
The primary heart muscle cells from newborn rats were suspended at a density of 3×10^6 cells/ml in Medium 199 containing 10% fetal calf serum, put onto a 96-well plate in a volume of 0.1 ml/well, and then cultured in a CO2 incubator set at 5% CO2 and 37° C. After the plate was stirred with a micromixer (Taiyo Kagaku Kogyo), the medium was exchanged 3 times with serum-free Medium 199, and then test compounds (Compounds 1 to 5 obtained in Reference Examples) were added thereto. The cells were cultured for additional 4 days to induce apoptosis. Then, fetal calf serum was added thereto at a concentration of 10%, and the cells were further cultured for about 17 hours in a CO2 incubator set at 5% CO2 and 37° C. Finally, the number of viable cells was determined with Cell Counting Kit (Dojindo) using WST-8 (2-(2-methoxy-4-nitrophenyl)-3-(4-nitrophenyl)-5-(2,4-disulfophenyl)-2H-tetrazolium, monosodium salt) as the coloring substrate to determine the inhibition of the heart muscle cell apoptosis.
The above-mentioned exeriment was tripicated in an independent manner. […]

SMILES | Minimal Effective Concentration
O=c1nc(-c2ccccn2)sc2ccccc12 [Compound 1, 2-(2-Pyridyl)-4H-1,3-benzothiazin-4-one] | 0.015 ± 0.011 µM
O=c1nc(-c2cccnc2)sc2ccccc12 [Compound 2, 2-(3-pyridyl)-4H-1,3-benzothiazin-4-one] | 0.041 ± 0.018 µM
O=c1nc(-c2ccncc2)sc2ccccc12 [Compound 3, 2-(4-pyridyl)-4H-1,3-benzothiazin-4-one] | 0.014 ± 0.0099 µM
CCOC(=O)/C=C1\NC(=O)c2ccccc2S1 [Compound 4, Ethyl 2-(4-oxo-3,4-dihydro-2H-1,3-benzothiazin-2-ylidene)acetate] | 0.019 ± 0.0078 µM
O=C1N/C(=C\C(=O)N2CCCCC2)Sc2ccccc21 [Compound 5, 2-[2-oxo-2-(1-piperidinyl)ethylidene]-2,3-dihydro-4H-1,3-benzothiazin-4-one] | 0.06 ± 0.041 µM

Tested on: phosphorylated STAT3 (Tyr705) / gp130 signal
Test: Enhancing action on gp130 signal: LIF-induced phosphorylation of STAT3 (Tyr705) by immunoblotting
Type: cell-based, rat
Conditions: 0.01-10 μM Compound 1 with 10 U/ml human LIF, 30 minutes, primary heart muscle cells from newborn rats, FIG. 1
Source text: STAT3 (signal transducers and activators of transcription-3) is a primary positive regulatory factor involved in transmission of gp130 signal. Phosphorylation of the tyrosine residue at the 705th position (Tyr705) is essential for activation of STAT3. Accordingly, this phosphorylation can be used as an indicator of activation of STAT3, that is, of an enhancing action on gp130 signal.
Primary heart muscle cells derived from newborn rats were stimulated with a small amount of LIF (Leukemia inhibitory factor) to induce gp130 signal in the presence of a test compound (Compound 1 obtained in Reference Example 1). Phosphorylation of Tyr705 was examined by immunoblotting with an antibody specifically recognizing phosphorylated STAT3, to confirm the enhancing action of the test compound on gp130 signal.
The primary heart muscle cells derived from newborn rats, obtained in the method of Experimental Example 1, were suspended at a density of 5×10^6 cells/ml in Medium 199 containing 10% fetal bovine serum, then put to a 12-well plate (ASAHI TECHNO GLASS CORPORATION) in a volume of 2.0 ml/well, and cultured for 1 day in a 5% CO2 incubator set at 37° C. […]

SMILES | phosphorylation of STAT3 induced by LIF
O=c1nc(-c2ccccn2)sc2ccccc12 [Compound 1, 2-(2-Pyridyl)-4H-1,3-benzothiazin-4-one] | can further promote phosphorylation of STAT3
